“Also recorded” adds a separate entry of the source.
Key:
Format in all cases: cell-based
bacterial strain SK-3 [1] = experiment: Growth substrate tests in liquid medium; conditions: initial concentration 100 parts per million, except chlorobenzoate 2-3 millimolar
Method: (§1) The ability of the four isolated strains to grow on selected polychlorobiphenyls as a sole carbon source was assessed.
(§2) (All tests were conducted in a liquid medium. The initial concentration of the organic substrate was 100 parts per million, except chlorobenzoate, which was 2-3 millimolar).

bacterial strain SK-1 = experiment: Growth substrate tests in liquid medium; conditions: initial concentration 100 parts per million, except chlorobenzoate 2-3 millimolar
Method: as §1, §2

bacterial strain SK-2 [2] = experiment: Growth substrate tests in liquid medium; conditions: initial concentration 100 parts per million, except chlorobenzoate 2-3 millimolar
Method: as §1, §2

bacterial strain SK-4 [3] = experiment: Growth substrate tests in liquid medium; conditions: initial concentration 100 parts per million, except chlorobenzoate 2-3 millimolar
Method: as §1, §2

bacterial strain SK-3 [4] = experiment: Biodegradation of commercial PCB mixture Aroclor 1242 as sole carbon source; conditions: 12 days; benzoate-grown washed cells; no cosubstrate; GC
Method: In addition to testing the ability to use a single PCB congener as a sole carbon source (as described in Example 1), several strains of the isolated bacteria of the invention (SK-1, SK-2, SK-3 and SK-4) were tested for the ability to degrade low chlorinated PCB congeners (dichlorobiphenyls and trichlorobiphenyls) of a commercial PCB mixture in the absence of biphenyl or any other cometabolic substrate as a carbon source.
The ability of SK-1, SK-2, SK-3 and SK-4 to degrade Aroclor® 1242 was assessed using cells which were grown on benzoate and then washed. Briefly, the cells were washed by centrifuging the cells, decanting the supernatant, resuspending the cells in fresh medium, then pelleting the cells using centrifugation again and decanting the supernatant to remove residual benzoate and other carbon sources. Aroclor® 1242 was the sole carbon source provided to the cells.
The degradation of Aroclor® 1242 by SK-3 was monitored using gas is chromatography analysis and the results are depicted in FIG. 12. […] The degraded PCB congeners were identified as follows: Peak #1 was 2,5-DCBP or 2,4-DCBP; Peak #2 was 2,3′-DCBP; and Peak #3 was 2,4′-DCBP. No significant degradation of any PCB congener containing three or more chlorine atoms was observed.

bacterial strain SK-4 [5] = experiment: Characterization of SK-4: growth on and degradation of 2,2′-DCBP and 2,4′-DCBP
Method: The same methods for determining concentrations of analytes and for the incubation of the bacterial strain with growth substrate described herein for the previous analyses were used in the experiments to characterize SK-4. The concentration of SK-4 cells in the experiments was 1.5×10^7 cells per milliliter and the concentration of 2,2′-DCBP or 2,4′-DCBP was 100 milligrams per liter. […] Ortho-substituted congeners are common degradation products of anaerobic reductive dechlorination of more highly chlorinated PCBs (PCBs comprising more than two chlorine atoms) by anaerobic bacteria.
2,2′-DCBP was supplied at a concentration of 100 milligrams per liter dissolved in heptamethyl nonane (HMN), a non-biodegradable PCB solvent. Controls contained HMN but lacked 2,2′-DCBP.

bacterial strain SK-3 [6] = experiment: Characterization of SK-3: growth on and degradation of chlorobiphenyls and chlorobenzoates
Method: (§3) The concentrations of chlorobenzoates and dichlorobiphenyls were assessed after hexane extraction of bottles using gas chromatography analysis of the extracts with an electron capture detector. Chlorobenzoates were analyzed using standard columns after derivitization with pentafluorobenzyl bromide. Dichlorobiphenyls were analyzed using a DB-5 column (J&W Scientific, Fulsom, Calif.).
The results from this experiment are depicted in FIG. 5.
The growth of SK-3 on 4-chlorobiphenyl (4-CB) was compared with growth on its non-chlorinated form, biphenyl. […] The results from this experiment are depicted in FIG. 6. The concentration of chloride ion was determined using ion chromatography on a standard Dionex ion chromatography column. The concentration of 4-CB was assessed after hexane extraction of bottles by analyzing the hexane extracts using gas chromatography on a DB-5 column (J&W Scientific, Fulsom, Calif.) and an electron capture detector.
The growth of SK-3 on chlorobenzoates was assessed. […] The results from this experiment are depicted in FIG. 7.
The degradation of three different monochlorobiphenyls, (2-CB, 3-CB, and 4-CB) by SK-3 was assessed at 23° C. under aerobic conditions on a shaker table. After incubation of SK-3 with the selected monochlorobiphenyl for 88 hours, the concentrations of chloride and the corresponding chlorobenzoic acids (CBA) was assessed as described herein. The results from this experiment are depicted in FIG. 8.
The growth of SK-3 on dichloro-biphenyls was also assessed. […] The results of this experiment are depicted in FIG. 9.

bacterial strain SK-2 [7] = experiment: Growth of SK-2 on 3,4-DCBP as sole carbon source and its degradation
Method: Growth of bacterial strains SK-1 and SK-2 on 2,3-DCBP and 3,4-DCBP, respectively, as a sole carbon source was determined using direct counting and an acridine orange staining method. This method involves filtering 0.1 milliliters of culture through a 0.45 micron filter, staining the cells on the filter using a 0.01% acridine orange solution for 3 to 5 minutes, and counting cells on the filter using an epifluorescent microscope at a 1000′ magnification. SK-1+ contained 2,3-dichlorobiphenyl; SK-2+ contained 3,4-dichlorobiphenyl. Control bottles in each case were identical to experimental bottles in that they were inoculated with the cultures but they lacked the appropriate congener. The initial concentration of PCBs was 500 ppm (w/v). The cell numbers of the two isolates increased by 1.5 orders of magnitude in the presence of the DCBPs used as a growth substrate. The degradation of 2,3-DCBP by SK-1 and production of 2,3-dichlorobenzoate is depicted in FIG. 3. The degradation of 3,4-DCBP by SK-2 and production of 3,4-dichlorobenzoate is depicted in FIG. 4.
as §3
The data shown in FIGS. 2, 3 and 4 illustrates the nearly complete disappearance of both 2,3-DCBP (0.38 mM initial concentration, FIG. 3) and 3,4-DCBP (0.3 mM initial concentration, FIG. 4) within 10 days of incubation. Duplicate bottles were used and error bars of the pictures represent a standard deviation. Controls contained DCBPs but lacked inoculum. DCBPs were supplied in the bottles using the non-biodegradable carrier heptamethylnonane (HMN).

[8] = 1.5×10^7 cells per milliliter, substrate in heptamethyl nonane

| SMILES | Growth of SK-3 on the substrate as sole carbon source (bacterial strain SK-3 [1]) | Growth of SK-1 on the substrate as sole carbon source (bacterial strain SK-1) | Growth of SK-2 on the substrate as sole carbon source (bacterial strain SK-2 [2]) | Growth of SK-4 on the substrate as sole carbon source (bacterial strain SK-4 [3]) | Degradation of PCB congeners of Aroclor 1242 by SK-3 (bacterial strain SK-3 [4]) | Growth of SK-4 on the substrate as sole carbon source (bacterial strain SK-4 [5]; 1.5×10^7 cells per milliliter, 100 milligrams per liter) | Chloride release on degradation by SK-4 (bacterial strain SK-4 [5]; [8]) | Chlorobenzoate production on degradation by SK-4 (bacterial strain SK-4 [5]; [8]) | Doubling time of SK-4 grown on the substrate (bacterial strain SK-4 [5]; concentration 0.42 mM, sole carbon source) | Growth of SK-3 on the substrate as sole carbon source (bacterial strain SK-3 [6]) | Doubling time of SK-3 grown on the substrate (bacterial strain SK-3 [6]; concentration 0.27 mM, sole carbon source) | Extent of chloride production by SK-3 (bacterial strain SK-3 [6]; growth on 0.27 mM 2,4′-DCBP) | Production of chlorobenzoates (2-CBA, 4-CBA) during growth of SK-3 (bacterial strain SK-3 [6]; growth on 2,4′-DCBP) | Time to nearly complete disappearance (bacterial strain SK-2 [7]; SK-2, 0.3 mM initial concentration, supplied in heptamethylnonane) | Increase of cell numbers in the presence of the DCBP as growth substrate (bacterial strain SK-2 [7]; SK-2, initial concentration 500 ppm (w/v), acridine orange direct counting) | Time at which concentration of chlorobenzoate produced from 3,4-DCBP by SK-2 reached a maximum, then decreased (bacterial strain SK-2 [7]; 0.3 mM 3,4-DCBP initial concentration) |
| --- | --- | --- | --- | --- | --- | --- | --- | --- | --- | --- | --- | --- | --- | --- | --- | --- |
| Clc1cccc(-c2ccccc2Cl)c1 [2,3′-DCBP] | No | No | No | No | degraded |  |  |  |  |  |  |  |  |  |  |  |
| Clc1ccc(-c2ccccc2Cl)cc1 [2,4′-DCBP, 2,4′-dichlorobiphenyl] | exhibited growth and Yes | Yes | Unlikely | exhibited growth and Yes | degraded | growth; also recorded: ability to grow rapidly | production of chloride | stoichiometric accumulation of a chlorobenzoate | ~17 h | able to grow | approximately 43 hours | 0.49 mM | not detected |  |  |  |
| Clc1ccc(-c2ccccc2)cc1Cl [3,4-DCBP, 3,4-dichlorobiphenyl] | No | No | exhibited growth and Yes | No |  |  |  |  |  |  |  |  |  | ≤ 10 days | 1.5 orders of magnitude |  |
| O=C(O)c1ccc(Cl)c(Cl)c1 [3,4-dichlorobenzoate] | No |  |  | No |  |  |  |  |  |  |  |  |  |  |  | 90 h |
